Data reported in patent US20230146870A1, “METHOD TO QUANTIFY AFFINITY AND SELECTIVITY OF SMALL MOLECULES FOR PROTEINS IN LIVING CELLS” (Ohio State Innovation Foundation, priority 2021, published 2023).
Several values for one entry are separate records, joined by “and”; a condition that tells them apart may be missing. Equal entries are not always repeated. Where two headings read alike, the source gives them in different places.

What was measured:
mouse PKCα-mVenus = mouse PKCα-mVenus (Mus musculus, UniProt P20444); assay: Apparent cellular Kd by flow cytometry, HEK293 cells overexpressing PKCα-mVenus (Example 2)
mouse PKCε-mVenus = biological target: T1, mouse PKCε-mVenus (Mus musculus, UniProt P16054); assay: Apparent cellular Kd by flow cytometry, HEK293 cells overexpressing PKCε-mVenus (Example 2)
T1 sequence (P16054 1-737): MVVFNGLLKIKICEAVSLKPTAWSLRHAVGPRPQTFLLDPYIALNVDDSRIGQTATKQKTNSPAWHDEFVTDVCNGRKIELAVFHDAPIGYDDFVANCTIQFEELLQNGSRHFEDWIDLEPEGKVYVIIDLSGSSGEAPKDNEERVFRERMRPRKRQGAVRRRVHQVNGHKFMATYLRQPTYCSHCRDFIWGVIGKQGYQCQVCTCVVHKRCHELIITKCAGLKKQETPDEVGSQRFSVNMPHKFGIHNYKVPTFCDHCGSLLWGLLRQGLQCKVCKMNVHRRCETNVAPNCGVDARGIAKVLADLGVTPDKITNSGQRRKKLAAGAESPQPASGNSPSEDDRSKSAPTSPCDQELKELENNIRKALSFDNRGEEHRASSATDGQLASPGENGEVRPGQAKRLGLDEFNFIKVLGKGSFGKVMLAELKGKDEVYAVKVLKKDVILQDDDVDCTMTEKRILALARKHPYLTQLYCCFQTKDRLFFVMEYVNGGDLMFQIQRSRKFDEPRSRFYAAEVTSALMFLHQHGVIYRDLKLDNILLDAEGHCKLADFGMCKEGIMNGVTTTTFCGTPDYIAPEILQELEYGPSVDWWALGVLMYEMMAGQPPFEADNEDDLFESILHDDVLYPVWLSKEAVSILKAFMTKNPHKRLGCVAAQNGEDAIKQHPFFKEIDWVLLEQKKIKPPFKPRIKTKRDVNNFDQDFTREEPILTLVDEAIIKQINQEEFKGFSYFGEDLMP

mouse PKCγ-mVenus = mouse PKCγ-mVenus (Mus musculus, UniProt P63318); assay: Apparent cellular Kd by flow cytometry, HEK293 cells overexpressing PKCγ-mVenus (Example 2)
mouse PKCδ-mVenus = mouse PKCδ-mVenus (Mus musculus, UniProt P28867); assay: Apparent cellular Kd by flow cytometry, HEK293 cells overexpressing PKCδ-mVenus (Example 2)
mouse PKCη-mVenus = mouse PKCη-mVenus (Mus musculus, UniProt P23298); assay: Apparent cellular Kd by flow cytometry, HEK293 cells overexpressing PKCη-mVenus (Example 2)
mouse PKCβI-mVenus = biological target: T2, mouse PKCβI-mVenus (Mus musculus, UniProt P68404); assay: Apparent cellular Kd by flow cytometry, HEK293 cells overexpressing PKCβI-mVenus (Example 2); type: binding
T2 construct: eight plasmids encoding full length mouse PKC isozymes fused to; expressed in transfected cells; host or cells: HEK293
Protocol: The apparent Kd values of these fluorescent probes were measured using different PKC isozymes (e.g., PKCβI, FIGS. 20A-20D). HEK293 cells were transfected to overexpress PKCβ-mVenus and treated with probes in the presence of verapamil (100 μM) as an inhibitor of efflux.

mouse PKCθ-mVenus = mouse PKCθ-mVenus (Mus musculus, UniProt Q02111); assay: Apparent cellular Kd by flow cytometry, HEK293 cells overexpressing PKCθ-mVenus (Example 2)
[1] = biological target: T3, native (untagged) murine PKCδ (Mus musculus, UniProt P28867); assay: FPCBA competition with probe 1, native PKCδ in HEK293 cells; type: binding; conditions: read-out: Cellular Ki for native PKCδ (95% confidence interval)
T3 construct: For coexpression of full-length unmodified PKC proteins with mVenus as an independent marker; expressed in transfected cells; host or cells: HEK293 (transient, pIRES-mVenus)

PKCδ = conditions: read-out: Biochemical Ki, PKCδ; cited from earlier work
[2] = biological target: T4, native (untagged) murine PKCε (Mus musculus, UniProt P16054); assay: FPCBA competition with probe 1, native PKCε in HEK293 cells; type: binding; set-up: For coexpression of full-length unmodified PKC proteins with mVenus as an independent marker; expressed in transfected cells; host or cells: HEK293 (transient, pIRES-mVenus); conditions: read-out: Cellular Ki for native PKCε (95% confidence interval)
T4 sequence (P16054 1-737): T1 sequence (P16054 1-737)

Jurkat lymphocytes = assay: Cytotoxicity assay, Jurkat lymphocytes, 48 h, flow cytometry (Example 3); type: cell-based
Protocol: […]. Where noted, 2×BIM1 (4 μM) was included.

[3] = biological target: native (untagged) murine PKCγ (Mus musculus, UniProt P63318); assay: FPCBA competition with probe 1, native PKCγ in HEK293 cells; type: binding; set-up: For coexpression of full-length unmodified PKC proteins with mVenus as an independent marker; expressed in transfected cells; host or cells: HEK293 (transient, pIRES-mVenus); conditions: read-out: Cellular Ki for native PKCγ (95% confidence interval)
PKC proteins = conditions: cited from earlier work
[4] = biological target: T5, native (untagged) murine PKCβI (Mus musculus, UniProt P68404); assay: FPCBA competition with probe 1, native PKCβI in HEK293 cells; type: binding; conditions: read-out: Cellular Ki for native PKCβI (95% confidence interval)
T5 construct: For coexpression of full-length unmodified PKC proteins with mVenus as an independent marker; expressed in transfected cells; host or cells: HEK293 (transient, pIRES-mVenus)

[5] = biological target: T6, native (untagged) murine PKCζ (Mus musculus, UniProt Q02956); assay: FPCBA competition with probe 1, native PKCζ in HEK293 cells; type: binding; set-up: expressed in transfected cells; host or cells: HEK293 (ATCC CRL-1573), transient transfection with pIRES-mVenus carrying the PKC gene
T6 sequence (Q02956 1-592): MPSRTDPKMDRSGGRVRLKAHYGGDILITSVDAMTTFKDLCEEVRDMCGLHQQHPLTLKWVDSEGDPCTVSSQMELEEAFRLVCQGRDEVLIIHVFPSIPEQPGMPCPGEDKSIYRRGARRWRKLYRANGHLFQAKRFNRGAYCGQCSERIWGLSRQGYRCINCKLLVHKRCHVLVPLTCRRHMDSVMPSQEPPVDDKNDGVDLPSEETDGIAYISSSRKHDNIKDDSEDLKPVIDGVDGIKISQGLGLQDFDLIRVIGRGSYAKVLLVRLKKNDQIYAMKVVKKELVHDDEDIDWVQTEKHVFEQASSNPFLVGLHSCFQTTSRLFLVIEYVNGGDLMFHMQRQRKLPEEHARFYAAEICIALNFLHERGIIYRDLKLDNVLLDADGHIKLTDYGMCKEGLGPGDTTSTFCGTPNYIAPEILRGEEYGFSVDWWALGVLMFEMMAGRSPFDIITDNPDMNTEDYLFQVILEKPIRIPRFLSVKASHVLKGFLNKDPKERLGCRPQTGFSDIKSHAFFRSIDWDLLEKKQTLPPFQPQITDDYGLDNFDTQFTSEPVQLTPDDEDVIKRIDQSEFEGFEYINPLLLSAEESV

[6] = biological target: native (untagged) murine PKCη (Mus musculus, UniProt P23298); assay: FPCBA competition with probe 1, native PKCη in HEK293 cells; type: binding; set-up: expressed in transfected cells; host or cells: HEK293 (ATCC CRL-1573), transient transfection with pIRES-mVenus carrying the PKC gene; conditions: read-out: Cellular Ki for native PKCη (95% confidence interval)
HEK293 cells = assay: Cytotoxicity assay, HEK293 cells, 48 h, flow cytometry (Example 3); conditions: concentrations of ≤10 μM
Protocol: As a preliminary assessment of their ability to activate PKCs, we evaluated the cytotoxicity of 1-3 towards HEK293 and Jurkat cells.
Where noted, 2×BIM1 (4 μM) was included. These diluted solutions of compounds (100 μL) were added to each well of a 96-well plate containing cells in medium (100 μL) in triplicate. For Jurkat lymphocytes, cells were seeded in fresh complete RPMI medium (10% FBS, 1% Pen/Strep) at 4.5×10^5 cells/mL (2× stock, 100 μL per well, [DMSO]=0.2%). […] Cell culture media (100 μL) was carefully removed from each well followed by the addition of the diluted compound solutions (2×, 100 μL) in triplicate.

[7] = biological target: native (untagged) murine PKCθ (Mus musculus, UniProt Q02111); assay: FPCBA competition with probe 1, native PKCθ in HEK293 cells; type: binding; set-up: expressed in transfected cells; host or cells: HEK293 (ATCC CRL-1573), transient transfection with pIRES-mVenus carrying the PKC gene; conditions: read-out: Cellular Ki for native PKCθ (95% confidence interval)
[8] = biological target: full-length rat PKCγ-EGFP (Rattus norvegicus, UniProt P63319); assay: Cellular binding by flow cytometry, HEK293 cells expressing full-length PKCγ-EGFP; conditions: verapamil 100 μM

T3 sequence (P28867 whole entry): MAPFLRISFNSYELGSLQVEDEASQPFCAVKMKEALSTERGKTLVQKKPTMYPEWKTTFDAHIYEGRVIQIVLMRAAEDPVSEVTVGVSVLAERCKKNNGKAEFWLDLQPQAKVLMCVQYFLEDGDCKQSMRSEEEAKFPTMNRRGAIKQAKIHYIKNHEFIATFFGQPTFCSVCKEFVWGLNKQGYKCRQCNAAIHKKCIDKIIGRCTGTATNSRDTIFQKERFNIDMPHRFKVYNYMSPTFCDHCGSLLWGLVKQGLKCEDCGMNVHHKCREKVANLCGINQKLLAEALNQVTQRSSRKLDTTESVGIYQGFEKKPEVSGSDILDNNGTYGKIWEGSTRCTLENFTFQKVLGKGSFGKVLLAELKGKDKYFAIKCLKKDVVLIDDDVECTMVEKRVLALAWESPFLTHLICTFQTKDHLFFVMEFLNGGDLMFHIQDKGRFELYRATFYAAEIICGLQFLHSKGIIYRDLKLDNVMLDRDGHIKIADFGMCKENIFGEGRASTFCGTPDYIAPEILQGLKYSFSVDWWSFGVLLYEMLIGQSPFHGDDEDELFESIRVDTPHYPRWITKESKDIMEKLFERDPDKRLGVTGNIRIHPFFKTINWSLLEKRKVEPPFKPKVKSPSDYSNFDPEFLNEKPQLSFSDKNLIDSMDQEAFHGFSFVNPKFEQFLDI
T2 sequence (P68404 whole entry, the tested form may be a part): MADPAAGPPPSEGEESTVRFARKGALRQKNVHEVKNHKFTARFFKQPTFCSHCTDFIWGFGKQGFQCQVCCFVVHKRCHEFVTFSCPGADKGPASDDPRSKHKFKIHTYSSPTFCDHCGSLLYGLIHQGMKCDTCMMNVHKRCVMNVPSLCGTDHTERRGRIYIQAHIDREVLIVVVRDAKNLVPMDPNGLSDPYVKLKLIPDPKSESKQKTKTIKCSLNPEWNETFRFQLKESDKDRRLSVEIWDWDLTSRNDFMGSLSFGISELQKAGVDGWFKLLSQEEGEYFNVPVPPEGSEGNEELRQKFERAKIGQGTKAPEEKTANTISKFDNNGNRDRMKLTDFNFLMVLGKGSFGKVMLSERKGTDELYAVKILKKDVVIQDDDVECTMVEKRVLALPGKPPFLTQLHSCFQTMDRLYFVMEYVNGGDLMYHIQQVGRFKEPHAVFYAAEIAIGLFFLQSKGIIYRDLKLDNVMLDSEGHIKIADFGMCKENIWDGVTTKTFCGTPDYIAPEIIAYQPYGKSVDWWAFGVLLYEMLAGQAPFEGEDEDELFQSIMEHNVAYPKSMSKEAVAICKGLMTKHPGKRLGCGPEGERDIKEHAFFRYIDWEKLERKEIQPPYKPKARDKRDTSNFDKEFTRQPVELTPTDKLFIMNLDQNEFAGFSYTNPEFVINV
Chain of mouse PKCη-mVenus (P23298 whole entry): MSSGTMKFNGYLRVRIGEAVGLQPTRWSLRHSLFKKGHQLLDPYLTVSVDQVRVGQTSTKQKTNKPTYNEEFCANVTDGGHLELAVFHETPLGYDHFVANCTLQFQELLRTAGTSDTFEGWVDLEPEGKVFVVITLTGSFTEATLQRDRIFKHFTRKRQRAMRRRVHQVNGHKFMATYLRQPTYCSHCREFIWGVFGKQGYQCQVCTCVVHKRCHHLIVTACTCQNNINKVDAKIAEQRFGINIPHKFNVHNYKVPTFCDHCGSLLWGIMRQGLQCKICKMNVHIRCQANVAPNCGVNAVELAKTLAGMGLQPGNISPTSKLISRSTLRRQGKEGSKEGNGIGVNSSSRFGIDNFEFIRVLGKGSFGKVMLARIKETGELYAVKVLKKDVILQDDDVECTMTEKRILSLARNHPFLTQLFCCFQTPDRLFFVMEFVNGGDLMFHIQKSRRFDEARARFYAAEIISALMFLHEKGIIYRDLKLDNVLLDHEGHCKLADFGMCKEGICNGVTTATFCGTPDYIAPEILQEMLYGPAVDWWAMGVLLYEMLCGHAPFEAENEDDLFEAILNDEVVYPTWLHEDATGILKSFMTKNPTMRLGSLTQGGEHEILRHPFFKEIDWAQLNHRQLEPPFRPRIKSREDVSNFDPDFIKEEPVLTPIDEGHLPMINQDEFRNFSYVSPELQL
Chain of native (untagged) murine PKCη (P23298 whole entry): as above
Chain of mouse PKCδ-mVenus (P28867 whole entry): as the sequence (P28867 whole entry) above
T5 sequence (P68404 2-673 isoform P68404-2): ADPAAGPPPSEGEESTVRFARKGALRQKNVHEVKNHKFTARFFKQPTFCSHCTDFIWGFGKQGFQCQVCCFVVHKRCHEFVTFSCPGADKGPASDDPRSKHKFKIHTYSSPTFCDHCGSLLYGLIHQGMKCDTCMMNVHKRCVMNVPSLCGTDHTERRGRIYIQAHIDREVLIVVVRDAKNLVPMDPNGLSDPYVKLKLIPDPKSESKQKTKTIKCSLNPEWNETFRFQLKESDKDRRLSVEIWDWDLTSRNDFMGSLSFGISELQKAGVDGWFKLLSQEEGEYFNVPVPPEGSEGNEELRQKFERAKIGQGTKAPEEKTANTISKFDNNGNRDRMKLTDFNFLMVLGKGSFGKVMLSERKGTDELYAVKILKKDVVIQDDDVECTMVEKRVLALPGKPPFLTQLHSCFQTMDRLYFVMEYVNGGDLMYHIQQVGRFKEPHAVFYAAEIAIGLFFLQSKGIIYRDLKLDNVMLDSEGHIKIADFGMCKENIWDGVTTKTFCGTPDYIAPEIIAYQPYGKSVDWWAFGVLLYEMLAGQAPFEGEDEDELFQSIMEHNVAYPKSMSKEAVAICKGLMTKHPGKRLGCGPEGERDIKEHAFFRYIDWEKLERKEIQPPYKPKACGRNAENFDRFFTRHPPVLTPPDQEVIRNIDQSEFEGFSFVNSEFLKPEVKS

CCN(CCCCCCCCCCCCNC(=O)c1cc2cc(F)c(O)c(F)c2oc1=O)C(=O)O[C@@]12[C@H](O)[C@@H](C)[C@@]3(O)[C@@H](C=C(CO)C[C@]4(O)C(=O)C(C)=C[C@@H]34)[C@@H]1C2(C)C [probe 47, (1aR,1bS,4aR,7aS,7bS,8R,9R,9aS)-4a,7b,9-trihydroxy-3-(hydroxymethyl)-1,1,6,8-tetramethyl-5-oxo-1,1a,1b,4,4a,5,7a,7b,8,9-decahydro-9aH-cyclopropa[3,4]benzo[1,2-e]azulen-9a-yl (12-(6,8-difluoro-7-hydroxy-2-oxo-2H-chromene-3-carboxamido)dodecyl)(ethyl)carbamate]
Kd (mouse PKCα-mVenus): 1.6 µM
Kd (mouse PKCε-mVenus): 7.9 µM
Kd (mouse PKCγ-mVenus): 2 µM
Kd (mouse PKCδ-mVenus): 7.8 µM
Kd (mouse PKCη-mVenus): 8.2 µM
Kd (mouse PKCβI-mVenus): 0.9 µM
Kd (mouse PKCθ-mVenus): 13.2 µM

CCCC(=O)O[C@@H]1[C@@H](C)[C@@]2(O)[C@@H](C=C(CO)C[C@]3(O)C(=O)C(C)=C[C@@H]23)[C@@H]2C(C)(C)[C@]12OC(=O)CCC [PDBu, phorbol 12,13-dibutyrate]
Ki [1]: 0.032 µM and 0.05 µM
Ki [2]: 0.055 µM
effect of BIM1 on cytotoxicity towards Jurkat lymphocytes (Jurkat lymphocytes; BIM1 2 μM): completely blocked
IC50 (Jurkat lymphocytes; read-out: cytotoxicity towards Jurkat lymphocytes, IC50): 0.002 µM
Ki [3]: 0.044 µM
Kd (PKC proteins; in the presence of phospholipids): ~0.001 µM
Kd (PKC proteins; without phospholipids): ~0.16 µM
Ki [4]: 0.014 µM
Cellular Ki for native PKCζ [5]: No binding
Ki [6]: 0.014 µM
toxicity towards HEK293 cells (HEK293 cells): non-toxic
Ki [7]: 0.05 µM

CC1=C[C@H]2[C@@]3(O)[C@H](C)[C@@H](O)[C@]4(OC(=O)N(C)CCCCCCCCCCCCN(C)C(=O)c5cc6ccc(O)cc6oc5=O)[C@H]([C@@H]3C=C(CO)C[C@]2(O)C1=O)C4(C)C [probe 34, (1aR,1bS,4aR,7aS,7bS,8R,9R,9aS)-4a,7b,9-trihydroxy-3-(hydroxymethyl)-1,1,6,8-tetramethyl-5-oxo-1,1a,1b,4,4a,5,7a,7b,8,9-decahydro-9aH-cyclopropa[3,4]benzo[1,2-e]azulen-9a-yl (12-(7-hydroxy-N-methyl-2-oxo-2H-chromene-3-carboxamido)dodecyl)(methyl)carbamate]
specific binding to PKCα-mVenus (mouse PKCα-mVenus; 90 min): no specific binding
total binding fluorescence vs non-specific binding [8]: identical or lower than the non-specific binding value
specific binding to PKCγ-mVenus (mouse PKCγ-mVenus; 90 min): no specific binding
specific binding to PKCβI-mVenus (mouse PKCβI-mVenus; 90 min): not measurable
